One data set has as its system 3NP-lesioned mice. The experiment in a line: Huntington's disease 3NP model, behavioral score. Type of data set: in vivo, C57BL/6 mice. To be noted: 10 mg/kg i.p., four injections, FIG. 9. Here is the method: Mice were subjected to behavioral tests for determining their neurological status after the treatment with compounds I (10 mg/kg) (A), III (10 mg/kg) (B) and XII (10 mg/kg) (C). Hind limb clasping, Locomotor activity, Hind limb dystonia and Truncal Dystonia were rated from 0 to 2 based on severity: a score of 0 typically indicates normal function and 2 seriously affected. Values are expressed as means±SEM for 8 animals per group.
(§1) Lesions of the striatum were induced with 3-NP in adult (16 week old; 30 g) male C57BL/6 mice (Harlan Ibérica, Barcelona, Spain). To this end, mice were subjected to seven intraperitoneal (i.p.) injections of 3NP (one injection each 12 hours) at a dose of 50 mg/kg (prepared in phosphate-buffered saline) for 3 days. These animals and their respective non-lesioned controls were used for pharmacological studies with compounds CBG-Q (compound I) and with compounds III and XII (FIG. 9). At least 6-8 animals were used per experimental group. Treatments consisted of four i.p. injections of the compounds at the indicated doses (one injection each 24 hours), or vehicle (DMSO 0.2%, BSA 5% in PBS) 30 min before the injections of 3NP. All animals were euthanized 12 hours after the last 3NP injection. Once euthanized, animals were dissected and their brains were rapidly removed. The right hemisphere was used to dissect the striatum, which was quickly frozen in RNAlater (Sigma-Aldrich, Germany) to analyzed inflammatory markers were by Real Time PCR. The left hemisphere was fixed in fresh 4% paraformaldehyde (in 0.1M phosphate buffered-saline) for 48 hours at 4° C. and embedded in paraffin wax for histological analysis. Mice were subjected to behavioral tests for determining their neurological status. We evaluated the general locomotor activity, the hindlimb clasping and dystonia, and the truncal dystonia. All behavioral tests were conducted prior to drug injections to avoid acute effects of the compounds under investigation.

For the next data set, the system named is Nrf2. The experiment in a line: Nrf2 transcriptional assay in HaCaT-ARE-Luc cells. It is filed as cell-based. The following applies: 6 h, FIG. 4. Here is the method: HaCaT-ARE-Luc cells were incubated for 6 h with compounds CBG-Q compound I) and with compounds I to VI (A) or with compounds VII to XII (B) at the indicated concentrations, and protein lysates were prepared and analysed for luciferase activity. The pro-oxidant tert-Butylhydroquinone (tBHQ) at 20 μM, a compound that induces cellular oxidative stress, was used as positive control. […] The results ratify that the reactive electrophilic activity associated to CBG-Q (compound I) is missing in all the compounds (derivatives in position 2) described in the present invention.
To study the activity of the compounds on the Nrf2 pathway we generated the HaCaT-ARE-Luc cell line. Nqo1 ARE-Luc reporter plasmid and pPGK-Puro plasmid were co-transfected into HaCat cells using Lipofectamine© 2000 transfection reagent (Life Technologies, Carlsbad, Ca, USA). Stable transformants were selected and maintained in RPMI 1640 containing 10% FBS, 1% penicillin-streptomycin and […] puromycin. HaCaT-ARE-Luc cells were incubated for 6 h with CBG-Q (compound I) and with compounds (II)-(VI) (A) or with compounds (VII)-(XII) (B) at the indicated concentrations, and protein lysates were prepared and analysed for luciferase activity as described in example 1. The prooxidant tert-Butylhydroquinone (tBHQ) at 20 μM was used as positive control. […]

In data set [1] the test system is N2a cells. The experiment in a line: Cytotoxicity, MTT assay, N2a cells. Type of data set: cell-based. To be noted: 24 h, FIG. 3A. As for the experimental part: (§2) The cell lines N2a (A), HT22 (B) and MO3.13 (C) cells were incubated for 24 h with the indicated doses of CBG-Q (Compound I) versus compounds II to XII, and cell viability was quantified by MTT assay. […] Control was set as 100% and data were referred to that value.
(§3) Electrophilic quinones induce cytotoxicity and activate the Nrf2 pathway, a cellular sensor of reactive oxygen species generation. In FIG. 3 it is analyzed the induced cell death in three different types of cells (N2a, HT22 and MO3.13) by compounds CBG-Q (compound I) and compounds (II) to (XII).
(§4) N2A, HT22 and MO3.13 cell viability was determined by the MTT assay. Briefly, cells were seeded at a density of 10^4 cells/well in 96-well plates, 200 μl cell suspension per well, and cultured for 24 hours. Cells were then incubated with several concentrations of the compounds for 24 hours. […] Finally the absorbance was measured at 550 nm using a TriStar LB 941 (Berthold Technologies, GmbH & Co. KG). […] The cell lines N2a (FIG. 3A), HT22 (FIG. 3B) and MO3.13 (FIG. 3C) cells were incubated for 24 h with the indicated doses of compounds CBG-Q (compound I) and compounds (II) to (XII), and cell viability was quantified by MTT assay. Results are shown as mean±S.D. from at least three independent experiments, and expressed as percentage of cell viability against the control sample (−). […]
On the technique in general: Tetrazolium assays rely on reduction of a dye to a coloured formazan, in cell work by metabolically active cells.

A further data set has as its system MO3.13 cells. Briefly: Cytotoxicity, MTT assay, MO3.13 cells. Type of data set: cell-based. The following applies: 24 h, FIG. 3C. Here is the method:
as §2, §3, §4

For another data set, the system named is HT22 cells. The experiment in a line: Cytotoxicity, MTT assay, HT22 cells. Type of data set: cell-based. The following applies: 24 h, FIG. 3B. As for the experimental part: as §2, §3, §4
The next data set has as its system EAE mice. The experiment in a line: Experimental autoimmune encephalomyelitis (EAE), clinical score. Type of data set: in vivo, C57BL/6 mice. The following applies: 5 mg/kg daily from day 6 post-immunization for 21 days, FIG. 8. Here is the method: C57BL/6 mice were immunized with MOG35-55 and their clinical score evaluated daily. Mice were treated daily with compound (III) (10 mg/kg) on day 6 post-immunization and the 21 following days. […] Values are expressed as means±SEM for 10 animals per group.
C57BL/6 mice were immunized with MOG35-55 and their clinical score evaluated daily. Mice were treated daily with compound (XII) (5 mg/kg) on day 6 post-immunization and the 21 following days. […] Values are expressed as means±SEM for 6 animals per group.
EAE was induced in female C57BL/6 mice at 6-8 weeks of age by subcutaneous immunization with myelin oligodendrocyte glycoprotein polypeptide (MOG35-55) (300 μg) and 200 μg of Mycobacterium tuberculosis (H37Ra Difco, Franklin Lakes, N.J., USA) in a 1:1 mix with […] Freund's adjuvant (CFA, Sigma-Aldrich, Madrid, Spain). On the same day and 2 days later, mice were injected intraperitoneally (ip) with 200 ng of pertussis toxin (Sigma-Aldrich, Madrid, Spain) in 0.1 ml PBS. […] Treatment started at day 6 post-immunization (p.i.) and consisted in daily injections of compounds III (FIG. 6) and XII (FIG. 8) at the indicated doses or of the vehicle alone (DMSO/PBS) for the following 21 days. The mice were examined daily for clinical signs of EAE and disease scores were measured as follows: 0, no disease; 1, limp tail; 2, limp tail and hind limb weakness; 3, hind limb paralysis; 4, hind limb and front limb paralysis; 5, moribund and death. All animals were sacrificed 28 days (p.i.) for further analysis. Once sacrificed, animals were dissected and their spinal cords were rapidly removed and quickly frozen in RNAlater (Sigma-Aldric, Germany).

The subject of data set [2] is striatal neurons, astrocytes and microglia. Briefly: 3NP model, immunohistochemistry of striatum (NeuN, GFAP, Iba-1). Type of data set: in vivo, C57BL/6 mice. The following applies: 3NP-lesioned mice, 10 mg/kg. Here is the method:
NeuN (neuronal marker), GFAP (astrocytes marker), and Ibal (microglia marker) were detected by immunostaining in the coronal sections of striatum of mice treated with vehicle, 3NP+ vehicle, 3NP+compoundXII (10 mg/kg) and XII (10 mg/kg). Quantification of NeuN (A), GFAP (B) and Ibal (C) positive cells in the mouse striatum. Total average number of neurons, astrocytes and microglia is shown. Values are expressed as means±SEM for 6 animals per group.
as §1, with “investigation. […]” for “investigation.”

For data set [3], the system named is N2a cells. The experiment in a line: Neuroprotection assay, glutamate-induced excitotoxicity in N2a cells. Type of data set: cell-based. To be noted: 1 h pre-incubation, then 5 mM glutamate 24 h, FIG. 5. Here is the method:
N2a cells were pre-incubated for 1 h with compounds (II) to (V) and (XII) at the indicated concentrations. Then, cells were treated for 24 h with 5 mM glutamate to induce excitotoxicity, or cytotoxicity in neuronal cells induced by neurotransmitters. Cell viability was quantified by MTT assay. […] Control was set as 100% and data were referred to that value.
Cultured N2A cells were pre-incubated with the compounds II, III, IV, V and XII at the indicated concentrations for 1 h and then treated with 5 mM glutamate to induce excitotoxicity during 24 h (FIG. 5). Cytotoxicity was determined by the MTT method as described in example 3. Results are shown as mean±S.D. from at least three independent experiments, and expressed as percentage of cell viability against the control sample (−). Control was set as 100% and data were referred to that value.

In data set [4] the test system is COX-2, iNOS, TNFα and IL-6. Briefly: 3NP model, inflammatory marker mRNAs in the striatum (real-time PCR). It is filed as in vivo, C57BL/6 mice. To be noted: 3NP-treated mice, 10 mg/kg, FIG. 10 and FIG. 11. As for the experimental part:
Gene expression of inflammatory markers including COX-2, TNFα, IL-6 and iNOS, was down regulated in 3NP+compound III (10 mg/kg) treated mice compared with 3NP+Vehicle mice. Expression levels were calculated using the 2^−ΔΔct method. Values are expressed as means±SEM for 6 animals per group.
Gene expression of inflammatory markers including COX-2, TNFα, IL-6 and iNOS, was down regulated in 3NP+XII (10 mg/kg) treated mice compared with 3NP+Vehicle mice. Expression levels were calculated using the 2^−ΔΔct method. Values are expressed as means±SEM for 6 animals per group.
Lesions of the striatum were induced with 3-NP in adult (16 week old; 30 g) male C57BL/6 mice (Harlan Ibérica, Barcelona, Spain). […] The right hemisphere was used to dissect the striatum, which was quickly frozen in RNAlater (Sigma-Aldrich, Germany) to analyzed inflammatory markers were by Real Time PCR. […] We evaluated the general locomotor activity, the hindlimb clasping and dystonia, and the truncal dystonia. […]
Total RNA was isolated from striata (3NP model) or spinal cord (EAE model) using RNeasy Lipid Tissue Mini Kit (Qiagen, GmbH). The total amount of RNA extracted was quantitated by spectrometry at 260 nm and its purity from the ratio between the absorbance values at 260 and 280 nm. […] Expression levels were calculated using the 2^−ΔΔct method.
In general terms: In qPCR the cycle at which signal appears reflects the starting amount.

Turning to `CCCCCC1=CC(=O)C(C/C=C(\C)CCC=C(C)C)=C(O)C1=O` [CBG-Q, Cannabigerol hydroxy quinone], the “clinical symptoms induced by 3-NP intoxication (hind limb clasping, locomotor activity, hind limb dystonia, truncal dystonia)” value with 3NP-lesioned mice is “unable to prevent the clinical symptoms”. For the same molecule, the “Nrf2 activation (ARE-luciferase activity; reactive electrophilic activity)” value in the data set with Nrf2 is “induces activation”. Further, the “cytotoxic activity (cell viability, MTT)” value in the data set with N2a cells [1], with MO3.13 cells and with HT22 cells was “cytotoxic activity” throughout.
As for `CCCCCC1=C(C2=C(CCCCC)C(=O)C(O)=C(C/C=C(\C)CCC=C(C)C)C2=O)C(=O)C(C/C=C(\C)CCC=C(C)C)=C(O)C1=O` [Compound XII, 3,3′-bis((E)-3,7-dimethylocta-2,6-dienyl)-4,4′-dihydroxy-6,6′-dipentyl-1,1′-bi(cyclohexa-3,6-diene)-2,2′,5,5′-tetraone], in the data set with EAE mice, the “clinical symptoms in EAE mice” value was “alleviated the clinical symptoms in EAE mice to the same extent than compound III”. The “clinical symptoms induced by 3-NP intoxication (hind limb clasping, locomotor activity, hind limb dystonia, truncal dystonia)” value with 3NP-lesioned mice is given as “clearly alleviates such symptomatology”. Moreover, in data set [2] (FIG. 12A), the “striatal neurons, NeuN staining” value is “preservation of striatal neurons”. Moreover, in data set [2] (FIG. 12B), the “GFAP+ cells (astrocytes) in striatum” value is “counteracted the lost of GFAP^+ cells”. The “reactive microgliosis (Iba-1+ cells) in striatum” value in data set [2] (FIG. 12C) was “prevented the induction of reactive microgliosis”. The “protection from glutamate-induced cytotoxicity (cell viability, MTT)” value in the data set with N2a cells [3] is given as “protect neuronal cells from glutamate-induced apoptosis”. Also, the “up-regulation of pro-inflammatory markers COX-2, iNOS, TNFα and IL-6 in the striatum” value in [4] is listed as “attenuated the up-regulation”.
